Here are results for 31 compounds from ChEMBL document CHEMBL1759965, “Synthesis and pharmacological evaluation of bivalent antagonists of the nociceptin opioid receptor” (Eur J Med Chem, 2011).

The target of assay [1] is Kappa-type opioid receptor (Homo sapiens, UniProt P41145). As to the kind of experiment: Displacement of [3H]-diprenorphine from human kappa opioid receptor expressed in human HEK293 cells after 2 hrs by scintillation counting.
Assay [2] has as its target Delta-type opioid receptor (Homo sapiens) (UniProt P41143). As to the kind of experiment: Displacement of [3H]-naltrindole from human delta opioid receptor expressed in human HEK293 cells after 2 hrs by scintillation counting. The format is cell-based.
The species entered for assay [3] is Homo sapiens. As to the kind of experiment: Selectivity ratio of IC50 for human kappa opioid receptor to IC50 for human NOP receptor.
The target in assay [4] is Mu-type opioid receptor (Homo sapiens, UniProt P35372). As to the kind of experiment: Displacement of [3H]-naltrindole from human mu opioid receptor expressed in CHO cells after 2 hrs by scintillation counting. The format is cell-based.
Mu-type opioid receptor, sequence (P35372 whole entry): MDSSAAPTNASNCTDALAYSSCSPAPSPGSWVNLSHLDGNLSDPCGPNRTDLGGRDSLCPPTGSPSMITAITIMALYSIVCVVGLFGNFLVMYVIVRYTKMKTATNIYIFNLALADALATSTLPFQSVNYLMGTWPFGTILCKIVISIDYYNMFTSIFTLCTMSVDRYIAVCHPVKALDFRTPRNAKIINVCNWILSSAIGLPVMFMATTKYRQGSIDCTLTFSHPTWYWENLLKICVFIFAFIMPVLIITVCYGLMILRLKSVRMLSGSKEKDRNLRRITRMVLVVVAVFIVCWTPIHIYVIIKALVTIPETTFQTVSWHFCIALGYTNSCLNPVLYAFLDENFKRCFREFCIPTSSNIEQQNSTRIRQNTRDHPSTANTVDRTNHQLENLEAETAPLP
For assay [5], the target named is T1, Nociceptin receptor (Homo sapiens, UniProt P41146). As to the kind of experiment: Antagonist activity at human NOP receptor expressed in human HEK293 cells assessed as inhibition of GTPgammaS binding in presence of 300 nM GDP relative to control. The format is functional, cell-based.
T1 sequence (P41146 whole entry): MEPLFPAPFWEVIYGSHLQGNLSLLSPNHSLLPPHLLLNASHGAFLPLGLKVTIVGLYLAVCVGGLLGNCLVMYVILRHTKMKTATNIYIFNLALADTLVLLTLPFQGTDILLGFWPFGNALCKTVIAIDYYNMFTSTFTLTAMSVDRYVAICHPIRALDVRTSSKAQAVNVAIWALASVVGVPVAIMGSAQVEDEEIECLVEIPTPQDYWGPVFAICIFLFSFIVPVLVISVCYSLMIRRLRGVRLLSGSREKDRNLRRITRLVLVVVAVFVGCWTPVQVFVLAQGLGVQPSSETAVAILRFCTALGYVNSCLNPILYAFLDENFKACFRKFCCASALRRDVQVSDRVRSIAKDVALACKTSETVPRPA
Assay [6] deals with T1, Nociceptin receptor. The experiment in a line: Displacement of [125I]Tyr14-nociceptin from human NOP receptor expressed in human HEK293 cells after 90 mins by scintillation counting.
The species entered for assay [7] is Homo sapiens. As to the kind of experiment: Selectivity ratio of IC50 for human mu opioid receptor to IC50 for human NOP receptor.

Activity calls are given as the source filed them. No cut-off for these calls is given here.

Kappa-type opioid receptor, sequence (P41145 whole entry): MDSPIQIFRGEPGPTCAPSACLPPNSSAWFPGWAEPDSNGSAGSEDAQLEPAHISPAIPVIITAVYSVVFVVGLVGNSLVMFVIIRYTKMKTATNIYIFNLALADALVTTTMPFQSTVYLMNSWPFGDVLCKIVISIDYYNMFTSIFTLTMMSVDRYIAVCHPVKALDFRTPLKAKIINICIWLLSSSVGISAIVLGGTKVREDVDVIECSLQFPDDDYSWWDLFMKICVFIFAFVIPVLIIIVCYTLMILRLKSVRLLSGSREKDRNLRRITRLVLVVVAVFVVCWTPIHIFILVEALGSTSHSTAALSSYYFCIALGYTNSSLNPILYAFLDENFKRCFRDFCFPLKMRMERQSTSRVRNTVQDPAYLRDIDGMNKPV
Delta-type opioid receptor (Homo sapiens), sequence (P41143 whole entry): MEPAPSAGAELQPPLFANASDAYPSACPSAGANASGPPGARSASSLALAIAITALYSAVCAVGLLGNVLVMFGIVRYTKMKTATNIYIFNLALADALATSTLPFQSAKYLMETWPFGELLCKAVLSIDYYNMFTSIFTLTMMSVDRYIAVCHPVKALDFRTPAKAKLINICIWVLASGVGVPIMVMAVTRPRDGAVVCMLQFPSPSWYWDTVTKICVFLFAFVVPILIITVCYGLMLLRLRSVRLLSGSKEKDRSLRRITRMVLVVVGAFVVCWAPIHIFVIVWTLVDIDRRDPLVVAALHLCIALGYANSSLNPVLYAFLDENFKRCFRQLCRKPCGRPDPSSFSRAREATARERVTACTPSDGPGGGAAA

On to `Cc1cc(N)c2cc(NC(=O)c3ccccc3COc3ccc(CNCCCN)cc3)ccc2n1`, for which the results for the IC50 in assay [1], in assay [4] and in assay [6] were 1650 nM, 1400 nM and 160 nM, respectively. For the same compound, the result in assay [2] was inactive. Moreover, the Ratio IC50 in assay [3] worked out at 14; in assay [7], 12. Also, the outcome in assay [5] was Active.

As to `Cc1cc(N)c2cc(NC(=O)c3ccccc3COc3ccc(CNCCCCCCCNCc4ccc(OCc5ccccc5C(=O)Nc5ccc6nc(C)cc(N)c6c5)cc4)cc3)ccc2n1`, the figures for the concentration for half-maximal inhibition (IC50) in assay [1], in assay [4] and in assay [6] were 1020 nM, 1040 nM and 30.1 nM, respectively. Also, the outcome in assay [2] was inactive. Further, the Ratio IC50 turned out to be 33 in assay [3] and 34 in assay [7]. Further, the result in assay [5] was Active.

With `CCCCCCNCc1ccc(OCc2ccccc2C(=O)Nc2ccc3nc(C)cc(N)c3c2)cc1`, the 50% inhibitory concentration (IC50) in assay [1] came to 1160 nM; in assay [4] it was 2590 nM; in assay [6], 1220 nM. In assay [2], the result was inactive. The Ratio IC50 in assay [3] amounted to 1.2; in assay [7] it was 2.6. Besides, the outcome in assay [5] was Active.

In the case of `CCCCNCc1ccc(OCc2ccccc2C(=O)Nc2ccc3nc(C)cc(N)c3c2)cc1`, the IC50 worked out at 5920 nM in assay [1], 5110 nM in assay [4] and 1120 nM in assay [6]. Moreover, the outcome in assay [2] was inactive. In addition, the Ratio IC50 in assay [3] amounted to 10; in assay [7] it was 8.6. The outcome in assay [5] was Active.

As to `Cc1cc(N)c2cc(NC(=O)c3ccccc3COc3ccc(CNCCCCCCN)cc3)ccc2n1`, the IC50 in assay [1] came to 1220 nM; in assay [4], 6000 nM; in assay [6], 1110 nM. For the same compound, in assay [2], the result was inactive. Also, the Ratio IC50 in assay [3] is 1.5; in assay [7], 7.4. Moreover, the outcome in assay [5] was Active.

`Cc1cc(N)c2cc(NC(=O)c3ccccc3COc3ccc(/C=N/CCCCCCC/N=C/c4ccc(OCc5ccccc5C(=O)Nc5ccc6nc(C)cc(N)c6c5)cc4)cc3)ccc2n1`: in assay [2], the outcome was inactive. The outcome in assay [5] was Active. Besides, the IC50 in assay [6] stood at 63.1 nM.

Consider `CCCCCCCCCNCc1ccc(OCc2ccccc2C(=O)Nc2ccc3nc(C)cc(N)c3c2)cc1`, for which the 50% inhibitory concentration (IC50) in assay [1] worked out at 2560 nM; in assay [4] it was 2170 nM; in assay [6] it was 305 nM. Further, the outcome in assay [2] was inactive. Also, the Ratio IC50 in assay [3] amounted to 13; in assay [7] it was 11. Further, the result in assay [5] was Active.

Take `Cc1cc(N)c2cc(NC(=O)c3ccccc3COc3ccc(CNCCCCCCCCCN)cc3)ccc2n1`: the concentration for half-maximal inhibition (IC50) in assay [1] worked out at 6180 nM; in assay [4] it was 7070 nM; in assay [6], 212 nM. Moreover, the outcome in assay [2] was inactive. Also, the Ratio IC50 came out at 40 in assay [3] and 46 in assay [7]. Moreover, the outcome in assay [5] was Active.

Consider `Cc1cc(N)c2cc(NC(=O)c3ccccc3COc3ccc(CNCCCCCN)cc3)ccc2n1`, for which the half-maximal inhibitory concentration (IC50) in assay [1] is 2150 nM; in assay [4], 4880 nM; in assay [6], 207 nM. In assay [2], the outcome was inactive. Also, the values for the Ratio IC50 in assay [3] and in assay [7] were 18 and 41, respectively. In addition, the result in assay [5] was Active.

Consider `CCCCCCCC/N=C/c1ccc(OCc2ccccc2C(=O)Nc2ccc3nc(C)cc(N)c3c2)cc1`, for which the result in assay [2] was inactive. The outcome in assay [5] was Active. Also, the 50% inhibitory concentration (IC50) in assay [6] is 147 nM.

For `Cc1cc(N)c2cc(NC(=O)c3ccccc3COc3ccc(CNCCCCCCCCNCc4ccc(OCc5ccccc5C(=O)Nc5ccc6nc(C)cc(N)c6c5)cc4)cc3)ccc2n1`, the figures for the IC50 in assay [1], in assay [4] and in assay [6] were 1270 nM, 1900 nM and 31.6 nM, respectively. The outcome in assay [2] was inactive. In addition, the Ratio IC50 was determined as 37 in assay [3] and 56 in assay [7]. Moreover, the outcome in assay [5] was Active.

`Cc1cc(N)c2cc(NC(=O)c3ccccc3COc3ccc(/C=N/CCCCCC/N=C/c4ccc(OCc5ccccc5C(=O)Nc5ccc6nc(C)cc(N)c6c5)cc4)cc3)ccc2n1`: the outcome in assay [2] was inactive. The outcome in assay [5] was Active. Besides, the IC50 in assay [6] amounted to 83.3 nM.

Turning to `Cc1cc(N)c2cc(NC(=O)c3ccccc3COc3ccc(/C=N/CCCC/N=C/c4ccc(OCc5ccccc5C(=O)Nc5ccc6nc(C)cc(N)c6c5)cc4)cc3)ccc2n1`, the result in assay [2] was inactive. For the same compound, the outcome in assay [5] was Active. In addition, the half-maximal inhibitory concentration (IC50) in assay [6] worked out at 35.6 nM.

With `CCCCCCCCNCc1ccc(OCc2ccccc2C(=O)Nc2ccc3nc(C)cc(N)c3c2)cc1`, the 50% inhibitory concentration (IC50) was 4950 nM in assay [1], 4340 nM in assay [4] and 483 nM in assay [6]. In addition, the outcome in assay [2] was inactive. Moreover, the Ratio IC50 in assay [3] was 15; in assay [7] it was 13. In addition, in assay [5], the result was Active.

Consider `CCC/N=C/c1ccc(OCc2ccccc2C(=O)Nc2ccc3nc(C)cc(N)c3c2)cc1`, for which, in assay [2], the result was inactive. In addition, the result in assay [5] was Active. The compound further showed an IC50 in assay [6] of 98.9 nM.

Regarding `CCCCCC/N=C/c1ccc(OCc2ccccc2C(=O)Nc2ccc3nc(C)cc(N)c3c2)cc1`, in assay [2], the outcome was inactive. The outcome in assay [5] was Active. Besides, the IC50 in assay [6] is 209 nM.

Take `CCCCCCCCCC/N=C/c1ccc(OCc2ccccc2C(=O)Nc2ccc3nc(C)cc(N)c3c2)cc1`: the result in assay [2] was inactive. Moreover, the outcome in assay [5] was Active. Besides, the 50% inhibitory concentration (IC50) in assay [6] turned out to be 184 nM.

Turning to `Cc1cc(N)c2cc(NC(=O)c3ccccc3COc3ccc(/C=N/CCCCC/N=C/c4ccc(OCc5ccccc5C(=O)Nc5ccc6nc(C)cc(N)c6c5)cc4)cc3)ccc2n1`, the result in assay [2] was inactive. Moreover, the outcome in assay [5] was Active. Further, in assay [6], the half-maximal inhibitory concentration (IC50) was 50.9 nM.

Consider `Cc1cc(N)c2cc(NC(=O)c3ccccc3COc3ccc(CNCCCCCCCCCCN)cc3)ccc2n1`, for which the results for the concentration for half-maximal inhibition (IC50) in assay [1], in assay [4] and in assay [6] were 9100 nM, 1400 nM and 153 nM, respectively. Moreover, the result in assay [2] was inactive. Besides, the Ratio IC50 in assay [3] is 86; in assay [7], 13. Besides, the outcome in assay [5] was Active.

As to `CCc1ccc(OCc2ccccc2C(=O)Nc2ccc3nc(C)cc(N)c3c2)cc1`, the half-maximal inhibitory concentration (IC50) turned out to be 7510 nM in assay [1], 1510 nM in assay [4] and 30 nM in assay [6]. For the same compound, in assay [2], the outcome was inactive. Moreover, the Ratio IC50 turned out to be 250 in assay [3] and 50 in assay [7]. Moreover, the result in assay [5] was Active.

In the case of `Cc1cc(N)c2cc(NC(=O)c3ccccc3COc3ccc(/C=N/CCCCCCCC/N=C/c4ccc(OCc5ccccc5C(=O)Nc5ccc6nc(C)cc(N)c6c5)cc4)cc3)ccc2n1`, the result in assay [2] was inactive. Moreover, the outcome in assay [5] was Active. The compound further showed an IC50 in assay [6] of 114 nM.

For the compound `Cc1cc(N)c2cc(NC(=O)c3ccccc3COc3ccc(CNCCCCCCCN)cc3)ccc2n1`, the half-inhibitory concentration (IC50) in assay [1] came out at 998 nM; in assay [4], 9980 nM; in assay [6] it was 246 nM. Moreover, in assay [2], the result was inactive. The results for the Ratio IC50 in assay [3] and in assay [7] were 5.7 and 57, respectively. Besides, in assay [5], the outcome was Active.

As for `Cc1cc(N)c2cc(NC(=O)c3ccccc3COc3ccc(CN)cc3)ccc2n1`, the result in assay [2] was inactive. For the same compound, the result in assay [5] was Active. In assay [6], the IC50 came out at 116 nM.

For the compound `CCCCCCC/N=C/c1ccc(OCc2ccccc2C(=O)Nc2ccc3nc(C)cc(N)c3c2)cc1`, the outcome in assay [2] was inactive. In addition, the result in assay [5] was Active. In assay [6], this compound showed an IC50 of 142 nM.

As to `Cc1cc(N)c2cc(NC(=O)c3ccccc3COc3ccc(/C=N/CCCCCCCCCC/N=C/c4ccc(OCc5ccccc5C(=O)Nc5ccc6nc(C)cc(N)c6c5)cc4)cc3)ccc2n1`, in assay [2], the result was inactive. For the same compound, in assay [5], the result was Active. Further, in assay [6], the half-inhibitory concentration (IC50) came out at 82.1 nM.

Consider `CCCCC/N=C/c1ccc(OCc2ccccc2C(=O)Nc2ccc3nc(C)cc(N)c3c2)cc1`, for which, in assay [2], the outcome was inactive. Also, in assay [5], the outcome was Active. Besides, the 50% inhibitory concentration (IC50) in assay [6] came to 186 nM.

For `Cc1cc(N)c2cc(NC(=O)c3ccccc3COc3ccc(C=O)cc3)ccc2n1`, the outcome in assay [2] was inactive. The result in assay [5] was Active. The IC50 in assay [6] was found to be 207 nM.

Consider `CCCCCCCCC/N=C/c1ccc(OCc2ccccc2C(=O)Nc2ccc3nc(C)cc(N)c3c2)cc1`, for which the result in assay [2] was inactive. The outcome in assay [5] was Active. The IC50 in assay [6] was found to be 154 nM.

For `Cc1cc(N)c2cc(NC(=O)c3ccccc3COc3ccc(/C=N/CCCCCCCCC/N=C/c4ccc(OCc5ccccc5C(=O)Nc5ccc6nc(C)cc(N)c6c5)cc4)cc3)ccc2n1`, the result in assay [2] was inactive. Besides, the result in assay [5] was Active. In assay [6], the IC50 amounted to 82.7 nM.

In the case of `CCCC/N=C/c1ccc(OCc2ccccc2C(=O)Nc2ccc3nc(C)cc(N)c3c2)cc1`, the result in assay [2] was inactive. Also, the result in assay [5] was Active. Also, the IC50 in assay [6] came to 309 nM.

Regarding `Cc1cc(N)c2cc(NC(=O)c3ccccc3COc3ccc(/C=N/CCC/N=C/c4ccc(OCc5ccccc5C(=O)Nc5ccc6nc(C)cc(N)c6c5)cc4)cc3)ccc2n1`, the result in assay [2] was inactive. For the same compound, the result in assay [5] was Active. The compound further yielded an IC50 in assay [6] of 48 nM.
